Molecular target: Hepatocyte growth factor receptor (Homo sapiens, UniProt P08581)
Sequence (P08581 whole entry): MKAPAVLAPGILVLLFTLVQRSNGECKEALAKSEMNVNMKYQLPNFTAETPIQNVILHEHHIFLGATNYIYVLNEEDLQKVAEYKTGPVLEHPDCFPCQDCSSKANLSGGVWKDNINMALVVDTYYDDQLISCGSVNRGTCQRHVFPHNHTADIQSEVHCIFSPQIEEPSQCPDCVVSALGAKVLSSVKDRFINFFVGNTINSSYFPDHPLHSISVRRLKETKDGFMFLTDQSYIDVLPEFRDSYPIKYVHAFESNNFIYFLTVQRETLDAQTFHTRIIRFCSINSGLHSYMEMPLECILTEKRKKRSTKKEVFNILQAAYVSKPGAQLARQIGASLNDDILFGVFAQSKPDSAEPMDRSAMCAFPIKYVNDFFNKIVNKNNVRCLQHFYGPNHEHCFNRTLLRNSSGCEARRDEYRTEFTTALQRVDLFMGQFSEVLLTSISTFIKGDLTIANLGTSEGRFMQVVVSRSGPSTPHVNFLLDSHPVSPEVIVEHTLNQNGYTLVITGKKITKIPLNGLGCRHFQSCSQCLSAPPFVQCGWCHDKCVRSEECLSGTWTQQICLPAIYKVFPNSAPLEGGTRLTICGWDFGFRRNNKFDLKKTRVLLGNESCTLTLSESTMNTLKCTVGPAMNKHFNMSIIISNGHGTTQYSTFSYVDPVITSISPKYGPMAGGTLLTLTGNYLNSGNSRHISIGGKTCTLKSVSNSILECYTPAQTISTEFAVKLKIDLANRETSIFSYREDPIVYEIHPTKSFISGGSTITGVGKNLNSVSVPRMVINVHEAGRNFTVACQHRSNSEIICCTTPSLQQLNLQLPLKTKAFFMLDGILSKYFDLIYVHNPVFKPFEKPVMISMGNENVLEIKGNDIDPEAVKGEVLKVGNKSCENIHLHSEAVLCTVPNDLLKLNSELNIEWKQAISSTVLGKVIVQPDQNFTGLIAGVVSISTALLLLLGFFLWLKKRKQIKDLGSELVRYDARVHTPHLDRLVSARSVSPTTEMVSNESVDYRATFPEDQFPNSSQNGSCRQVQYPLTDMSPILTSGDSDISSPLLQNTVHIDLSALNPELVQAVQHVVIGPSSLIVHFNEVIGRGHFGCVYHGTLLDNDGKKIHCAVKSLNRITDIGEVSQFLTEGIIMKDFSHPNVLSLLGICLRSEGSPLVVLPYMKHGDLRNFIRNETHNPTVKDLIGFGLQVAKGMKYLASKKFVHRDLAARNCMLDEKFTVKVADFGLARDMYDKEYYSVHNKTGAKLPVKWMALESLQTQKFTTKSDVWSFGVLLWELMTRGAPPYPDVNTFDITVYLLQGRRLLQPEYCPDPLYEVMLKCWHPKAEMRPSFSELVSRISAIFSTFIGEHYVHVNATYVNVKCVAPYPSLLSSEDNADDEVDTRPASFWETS
Description: Inhibition of human c-MET

IC50 [nM]	Compound
57	CN1CCN(c2cnc3cccc(OCc4cccc([N+](=O)[O-])c4)c3c2)CC1
28	CN(CCN1CCN(N)CC1)Cc1ccc(-c2cc3nccc(Oc4ccc(NC(=O)N5CCN(c6ccccc6)C5=O)cc4F)c3s2)cc1
170	Cc1[nH]c(/C=C2\C(=O)Nc3ccc(S(=O)(=O)N(C)c4cccc(Cl)c4)cc32)c(C)c1CCCN1CCOCC1
108	CCn1ccnc1-c1cc2cccc(Oc3ccc(NC(=S)NC(=O)Cc4ccccc4)cc3F)c2s1
181	O=C(Cc1ccccc1)NC(=S)Nc1ccc(Oc2cccc3cc(-c4ncccn4)sc23)c(F)c1
20	CC(C)(C)OC(=O)c1cnc2ccn(S(=O)(=O)c3ccccc3[N+](=O)[O-])c2c1
0.7	O=C(Cc1ccc2c(c1)CCO2)NN=C1C(=O)Nc2cc(C(=O)NCN3CCOCC3)cc(Br)c21
4150	Cn1cc(CC(=O)N/N=C2\C(=O)Nc3ccc(C(=O)N4CCCC4CN4CCCC4)c(Cl)c32)ccc1=O (stereo unspecified)
430	CC(C(=O)NN=C1C(=O)Nc2ccc(C(=O)N3CCCC3CN3CCCC3)c(Cl)c21)c1ccc(F)cc1 (stereo unspecified)
100	CN(C)CCNC(=O)c1cc(Br)c2c(c1)NC(=O)/C2=N\NC(=O)Cc1ccc2c(c1)CCO2
5200	COc1cc2nccc(Oc3ccc(NC(=O)NCCc4c(Cl)cccc4Cl)nc3)c2cc1OC
9640	COc1cc2nccc(Oc3ccc(NC(=O)NCC(=O)N(C)C)nc3)c2cc1OC
6600	O=C(Nc1ccc(Oc2ccnc3ccsc23)c(F)c1)NC1CC1c1ccccc1 (stereo unspecified)
10000	O=C(Nc1ccc(Oc2ccnc3ccsc23)cc1)NC1CC1c1ccccc1 (stereo unspecified)
4400	Cn1ccnc1-c1cc2nccc(Oc3ccc(NC(=O)NC(=O)c4c(F)cccc4F)nc3)c2s1
300	O=C(Cc1ccccc1)NC(=O)Nc1ccc(Oc2ccnc3ccsc23)cc1F

IC50 [nM]	Compound
40	Cc1[nH]c(/C=C2\C(=O)Nc3ccc(S(=O)(=O)N4CCc5ccccc54)cc32)c(C)c1C(=O)N1CCN(C)CC1
65	O=C(Cc1ccc2c(c1)CCO2)N/N=C1\C(=O)Nc2cc(C(=O)NCCCO)cc(Br)c21
130	O=C(Cc1ccccc1)NC(=S)Nc1ccc(Oc2ccnc3cc(C(=O)C4CCCO4)sc23)c(F)c1 (stereo unspecified)
29	Cn1cnc(-c2cc3cccc(Oc4ccc(NC(=S)NC(=O)Cc5ccccc5)cc4F)c3s2)c1
200	Cc1cc(CCN2CCCC2)c(C)c2c1N(CCN1CCCCC1)C(=O)/C2=N\NC(=O)C(C)c1ccc(O)cc1 (stereo unspecified)
20	Cc1cccc2c1NC(=O)/C2=N\NC(=O)Cc1ccc(O)c(Cl)c1
430	COc1cc2ncnc(Oc3ccc(NC(=O)NC(=O)c4c(F)cccc4F)nc3)c2cc1OC
17	COc1cc2c(Oc3ccc(-c4cnc(Cc5ccc(F)cc5)n(C)c4=O)cc3F)ccnc2cc1OCCCN1CCOCC1
2.7	COc1ccc2c(Oc3ccc(NC(=O)c4c(C)n(CC(C)(C)O)n(-c5ccccc5)c4=O)cc3F)ccnc2c1
9.2	COc1cc2c(Oc3ccc(-c4cnc(Cc5ccccc5)n(C)c4=O)cc3F)ccnc2cc1OCCCN1CCN(C)CC1
21	CCN1CCN(CCCOc2cc3nccc(Oc4ccc(-c5cnc(Cc6ccccc6)n(C)c5=O)cc4F)c3cc2OC)CC1
4.9	COc1cc2c(Oc3ccc(-c4cnc(Nc5ccc(F)cc5)n(C)c4=O)cc3F)ccnc2cc1OCCCN1CCOCC1
72	COc1cc2nccc(Oc3ccc(-c4cnc(C(N)c5ccccc5)n(C)c4=O)cc3F)c2cc1OC (stereo unspecified)
38	COc1cc2nccc(Oc3ccc(-c4cnc(Nc5cccc(F)c5)n(C)c4=O)cc3F)c2cc1OC
17	COc1cc2c(Oc3ccc(-c4cnc(Cc5ccccc5)n(C)c4=O)cc3F)ccnc2cc1OCCCN1CCOCC1
